# Test results published in US20030162838A1, “Bactericide, antiseptic, dermally applicable composition, washing composition, antibacterial fiber aggregate, method for eradicating a microorganism, and method for inhibiting the proliferation of a microorgamism” (Ajinomoto Co., Inc., priority 2001, published 2003).
# “Also recorded” adds a separate entry of the source.
# Key:
# Type in all cases: cell-based
# [1] = tested on: Candida albicans (ATCC10231); assay: Antibacterial activity evaluation, agar dilution MIC; conditions: Potato dextrose agar medium, 25° C. for 48 hours
# Excerpt: (§1) 4-Guanidinobutyldodecanamide hydrochloride (LAG-HCl) which is a salt of an amide group-containing guanidine derivative and N-cocoyl-L-arginine ethyl ester-DL-pyrrolidone carboxylate which is an N-long chain acyl basic amino acid derivative were examined for their concentrations at which the growth of each test strain was inhibited completely (MIC).
# (§2) The test strains employed were Escherichia coli (ATCC8739), Pseudomonas aeruginosa (ATCC9027), Staphylococcus aureus (ATCC6538), Streptococcus mutans (ATCC35275), Propionibacterium acnes (ATCC6919), Candida albicans (ATCC10231), Aspergillus niger (ATCC16404), Trichophyton mentagrophytes (ATCC11480) and Malassezia furfur (ATCC14521).
# (§3) A bacterial cell suspension of E.coli, P.aeruginosa, S.aureus and S.mutans was obtained by incubation in a sensitive broth medium at 35° C. for 20 hours. The bacterial cell suspension of P.acnes was obtained by anaerobic incubation in a GAM agar medium at 35° C. for 20 hours followed by collecting cells with a platinum loop spatula followed by suspending the cells in a sterilized physiological saline at a cell density at about 10^8 cells/ml. The bacterial cell suspension of C.albicans was obtained by incubation in a potato dextrose agar medium at 25° C. for 48 hours followed by collecting cells with a platinum loop spatula followed by suspending the cells in a sterilized physiological saline at a cell density at about 10^6 cells/ml. The bacterial cell suspension of A.niger was obtained by incubation in a potato dextrose agar medium at 25° C. for 7 days followed by collecting cells with a platinum loop spatula followed by suspending the cells in a sterilized physiological saline followed by filtration through a sterilized gauze to adjust at a cell density at about 10^6 cells/ml. The bacterial cell suspension of T.mentagrophytes was obtained by incubation in a Sabouraud's agar medium at 25° C. for 7 days followed by collecting spores and hyphae with a platinum loop spatula followed by suspending the cells in a sterilized physiological saline followed by pelletizing using a homogenizer to adjust at a cell density at about 10^6 cells/ml. The bacterial cell suspension of M.furfur was obtained by incubation in an YMO agar medium at 25° C. for 7 days followed by suspending the test strain in a sterilized phosphate-buffered physiological saline at a cell density at about 10^6 cells/ml.
# (§4) To obtain an antibacterial activity assay sample, 4-guanidinobutyldodecanamide hydrochloride was dissolved in ethylene glycol at 2% which was used as a mother liquor which was diluted with water subsequently. N-cocoyl-L-arginine ethyl ester-DL-pyrrolidone carboxylate was dissolved in water to prepare a test solution. The respective minimum growth inhibition concentration at which no microbial growth was observed was determined (μg/ml).
# (§5) The agar medium (19 ml) was dissolved once and then kept at 50° C., and to this solution 1 ml of each diluted […] was added until reaching the intended concentration and mixed thoroughly and then solidified.
# (§6) Subsequently, the cell suspension of each test strain was sampled using a platinum loop spatula, with which an about 1 cm line was drawn on the antibacterial agent-supplemented agar plate. Each plate was incubated at the respective temperature for the respective time period shown below. […]
# (§7) For E.coli, P.aeruginosa, S.aureus, S.mutans, P.acnes, C.albicans, A.niger, T.mentagrophytes, M.furfur, the respective agar medium indicated in the Table 1 shown above was shown. […]
# [2] = tested on: Staphylococcus aureus (ATCC6538); assay: as above; conditions: Muller-Hinton agar medium, 35° C. for 48 hours
# Excerpt: as §1, §2, §3, §4, §5, §6, §7
# [3] = tested on: Trichophyton mentagrophytes (ATCC11480); assay: as above; conditions: Sabouraud's agar medium, 25° C. for 7 days
# Excerpt: as §1, §2, §3, §4, §5, §6, §7
# [4] = tested on: Malassezia furfur (ATCC14521); assay: as above; conditions: YMO agar medium, 25° C. for 7 days
# Excerpt: as §1, §2, §3, §4, §5, §6, §7
# [5] = tested on: Propionibacterium acnes (ATCC6919); assay: as above; conditions: GAM agar medium, 35° C. for 48 hours (anaerobic incubation)
# Excerpt: as §1, §2, §3, §4, §5, §6, §7
# [6] = tested on: Streptococcus mutans (ATCC35275); assay: as above; conditions: Muller-Hinton agar medium, 35° C. for 48 hours
# Excerpt: as §1, §2, §3, §4, §5, §6, §7
# [7] = tested on: Aspergillus niger (ATCC16404); assay: as above; conditions: Potato dextrose agar medium, 25° C. for 5 days
# Excerpt: as §1, §2, §3, §4, §5, §6, §7
# [8] = tested on: Pseudomonas aeruginosa (ATCC9027); assay: as above; conditions: Muller-Hinton agar medium, 35° C. for 48 hours
# Excerpt: as §1, §2, §3, §4, §5, §6, §7
# [9] = tested on: Escherichia coli (ATCC8739); assay: as above; conditions: Muller-Hinton agar medium, 35° C. for 48 hours
# Excerpt: as §1, §2, §3, §4, §5, §6, §7
# test strains = assay: Antibacterial activity evaluation, overall verdict over all test strains; conditions: summary of the MIC tables
# Excerpt: as §1, §2, §4
# (§8) In order to evaluate the contribution of acyl moiety to the antibacterial activity in amido group-containing guanidine derivatives, 4-guanidinobutyldecanamide acetate (DAG-AcOH), 4-guanidinobutyldodecanamide acetate (LAG-AcOH), 4-guanidinobutymyristilamide acetate (MAG-AcOH), 4-guanidinobutylpalmitylamide acetate (PAG-AcOH) were examined for their concentrations at which the growth of each test strain was inhibited completely (MIC).
# (§9) The test strains employed were Escherichia coli (ATCC8739), Pseudomonas aeruglnosa (ATCC9027), Staphylococcus aureus (ATCC6538), Streptococcus mutans (ATCC35275), Propionibacterium acnes (ATCC6919), Candida albicans (ATCC10231), Aspergillus niger (ATCC16404), Trichophyton mentagrophytes (ATCC11480), Malassezia furfur (ATCC14521), MRSA and Cladosporium cladosporioides (IFO6348).
# (§10) The respective minimum growth inhibition concentration at which no microbial growth was observed was determined (Table 4).
# [10] = tested on: Cladosporium cladosporioides (IFO6348); assay: Antibacterial activity evaluation, agar dilution MIC; conditions: Potato dextrose agar medium, 25° C. for 5 days
# Excerpt: as §8, §9
# The bacterial cell suspension of Cladosporium cladosporioides was obtained by incubation in a potato dextrose agar medium at 25° C. for 7 days followed by collecting cells with a platinum loop spatula followed by suspending […] the cells in a sterilized physiological saline followed by filtration through a sterilized gauze to adjust at a cell density at about 10^6 cells /ml.
# (§11) To obtain an antibacterial activity assay sample, each compound was dissolved in water to prepare a test solution, which was used as a mother liquor which was diluted with water subsequently.
# as §10
# (§12) The agar medium (19 ml) was dissolved once and then kept at 50° C., and to this solution 1 ml of each diluted […] was added until reaching the intended concentration and mixed thoroughly and solidified.
# (§13) Subsequently, the cell suspension of each test strain was sampled using a platinum loop spatula, with which an about 1 cm line was drawn on the antibacterial agent-supplemented agar plate. Each plate was incubated at the respective temperature for the respective time period shown below.
# MRSA = assay: as above; conditions: Muller-Hinton agar medium, 35° C. for 48 hours
# Excerpt: as §8, §9
# The bacterial cell suspension of MRSA was obtained by incubation in a sensitive broth medium at 35° C. for 20 hours.
# as §11, §10, §12, §13
molecule,measurement,setting,value
"N-cocoyl-L-arginine ethyl ester-DL-pyrrolidone carboxylate [CAE, reference compound]","MIC, C. albicans",[1],300 to 500 µg/mL
same,"MIC, S. aureus",[2],5 to 7.5 µg/mL
same,"MIC, T. mentagrophytes",[3],100 to 150 µg/mL
same,"MIC, M. furfur",[4],75 to 100 µg/mL
same,"MIC, P. acnes",[5],20 to 30 µg/mL
same,"MIC, S. mutans",[6],5 to 7.5 µg/mL
same,"MIC, A. niger",[7],300 to 500 µg/mL
same,"MIC, P. aeruginosa",[8],200 to 300 µg/mL
same,"MIC, E. coli",[9],75 to 100 µg/mL
same,antibacterial activity against any of the test strains (verdict in words),test strains,satisfactory antibacterial activity
"CC(=O)O.CCCCCCCCCC(=O)NCCCCNC(=N)N [DAG-AcOH, 4-guanidinobutyldecanamide acetate]","MIC, C. cladosporioides",[10],200 to 300 µg/mL
same,"MIC, C. albicans",[1],300 to 500 µg/mL
same,"MIC, S. aureus",[2],30 to 50 µg/mL
same,"MIC, T. mentagrophytes",[3],75 to 100 µg/mL
same,"MIC, M. furfur",[4],50 to 75 µg/mL
same,"MIC, P. acnes",[5],30 to 50 µg/mL
same,"MIC, S. mutans",[6],20 to 30 µg/mL
same,"MIC, A. niger",[7],300 to 500 µg/mL
same,"MIC, P. aeruginosa",[8],200 to 300 µg/mL
same,"MIC, E. coli",[9],150 to 200 µg/mL
same,"MIC, MRSA",MRSA,50 to 75 µg/mL
same,antibacterial activity against any of the test strains (verdict in words),test strains,satisfactory antibacterial activity
"CC(=O)O.CCCCCCCCCCCCCC(=O)NCCCCN=C(N)N [MAG-AcOH, 4-guanidinobutymyristilamide acetate]","MIC, C. cladosporioides",[10],200 to 300 µg/mL
same,"MIC, C. albicans",[1],500 to 750 µg/mL
same,"MIC, S. aureus",[2],3 to 5 µg/mL
same,"MIC, T. mentagrophytes",[3],75 to 100 µg/mL
same,"MIC, M. furfur",[4],100 to 150 µg/mL
same,"MIC, P. acnes",[5],10 to 15 µg/mL
same,"MIC, S. mutans",[6],3 to 5 µg/mL
same,"MIC, A. niger",[7],300 to 500 µg/mL
same,"MIC, P. aeruginosa",[8],300 to 500 µg/mL
same,"MIC, E. coli",[9],50 to 75 µg/mL
same,"MIC, MRSA",MRSA,10 to 15 µg/mL
same,antibacterial activity against any of the test strains (verdict in words),test strains,satisfactory antibacterial activity
4-Guanidinobutyldodecanamide hydrochloride [LAG-HCl],"MIC, C. albicans",[1],500 to 750 µg/mL
same,"MIC, S. aureus",[2],7.5 to 10 µg/mL
same,"MIC, T. mentagrophytes",[3],75 to 100 µg/mL
same,"MIC, M. furfur",[4],100 to 150 µg/mL
same,"MIC, P. acnes",[5],7.5 to 10 µg/mL
same,"MIC, S. mutans",[6],5 to 7.5 µg/mL
same,"MIC, A. niger",[7],200 to 300 µg/mL
same,"MIC, P. aeruginosa",[8],75 to 100 µg/mL
same,"MIC, E. coli",[9],75 to 100 µg/mL
same,antibacterial activity against any of the test strains (verdict in words),test strains,satisfactory antibacterial activity
"CC(=O)O.CCCCCCCCCCCC(=O)NCCCCNC(=N)N [LAG-AcOH, 4-guanidinobutyldodecanamide acetate]","MIC, C. cladosporioides",[10],150 to 200 µg/mL
same,"MIC, C. albicans",[1],300 to 500 µg/mL
same,"MIC, S. aureus",[2],2 to 3 µg/mL
same,"MIC, T. mentagrophytes",[3],30 to 50 µg/mL
same,"MIC, M. furfur",[4],50 to 75 µg/mL
same,"MIC, P. acnes",[5],10 to 15 µg/mL
same,"MIC, S. mutans",[6],5 to 7.5 µg/mL
same,"MIC, A. niger",[7],200 to 300 µg/mL
same,"MIC, P. aeruginosa",[8],75 to 100 µg/mL
same,"MIC, E. coli",[9],30 to 50 µg/mL
same,"MIC, MRSA",MRSA,10 to 15 µg/mL
same,antibacterial activity against any of the test strains (verdict in words),test strains; acetate,satisfactory antibacterial activity; also recorded: the best antibacterial activity
